Where two headings read alike, the source gives them in different places.
Assays:
[1] = Plasma-protein binding, rat; type: in vitro ADME; details: Sprague-Dawley, pH 7.4
Procedure: Tests were conducted by WuXi AppTec, Co., China, using the equilibrium dialysis method and a 96-well plate format. The test compound (at 2 μM, in triplicate) in solution in plasma (Balb/c mouse, golden (Syrian) hamster, Sprague-Dawley rat, Beagle dog or human) was dialyzed against 100 mM phosphate-buffered saline (pH 7.4) on a rotating plate incubated for 6 h at 37 °C. Following the precipitation of protein with acetonitrile or acetonitrile/methanol containing both 1% phosphoric acid, the amount of compound present in each compartment was quantified by LC-MS/MS.

[2] = target: CYP2C19 (Homo sapiens, UniProt P33261); assay: CYP inhibition, CYP2C19; type: in vitro ADME; details: human liver microsomes
Sequence of CYP2C19 (P33261 whole entry): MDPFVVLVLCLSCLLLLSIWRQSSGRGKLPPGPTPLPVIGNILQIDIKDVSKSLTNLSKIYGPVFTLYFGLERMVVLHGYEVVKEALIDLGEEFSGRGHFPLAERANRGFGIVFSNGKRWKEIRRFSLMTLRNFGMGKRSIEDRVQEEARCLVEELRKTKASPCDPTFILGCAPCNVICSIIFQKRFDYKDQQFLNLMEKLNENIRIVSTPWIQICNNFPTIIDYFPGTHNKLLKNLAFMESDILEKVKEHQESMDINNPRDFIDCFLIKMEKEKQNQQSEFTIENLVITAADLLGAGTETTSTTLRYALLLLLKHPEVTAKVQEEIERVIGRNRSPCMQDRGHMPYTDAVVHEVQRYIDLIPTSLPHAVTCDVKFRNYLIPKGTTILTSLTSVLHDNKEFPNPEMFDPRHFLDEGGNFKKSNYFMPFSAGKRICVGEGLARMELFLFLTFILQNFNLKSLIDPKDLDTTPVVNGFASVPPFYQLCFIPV
Procedure: The study was conducted by WuXi AppTec, Co., China, using the time-dependent (TDI) method. […] Following incubation with substrates (phenacetin for 1A2, diclofenac for 2C9, S-(+) mephenytoin for 2C19, dextromethorphan for 2D6, and midazolam or testosterone for 3A4), reactions were stopped by adding ice-cold acetonitrile, the samples were analyzed for the formation of metabolites by LC-MS/MS, and the percentage of inhibition was determined.

[3] = test system: L. infantum and L. donovani; assay: Hamster models of infection (summary statement); details: in vivo efficacy in hamster models of infection
Description: Female golden hamsters were randomly allocated to experimental groups of six animals each, based on body weight. At the start of the experiment (Day 0), each animal was infected with L. infantum or L. donovani inoculum, delivered by intracardial injection. Six hamsters were assigned to the vehicle-treated, infected control group. Six hamsters were assigned per group (1 group/compound) for the evaluation of compound and miltefosine. At Day 21 postinfection (21 dpi), all animals in each group were dosed orally for five (or ten) consecutive days (21–25 dpi): compound was dosed at 25–50 mg/kg b.i.d.; miltefosine was dosed at 40 mg/kg q.d. At Day 35 (10 days after the final oral dose), all animals were euthanized and autopsies were conducted. The study evaluated the following parameters. • 1. Adverse effects: all animals were observed daily for the occurrence/presence of adverse effects. • 2. […] Parasite burden: amastigote burdens in each target organ (liver, spleen, and bone marrow) were determined at Day 35. […] Impression smears were stained with Giemsa for microscopic examination of the total amastigote burden, defined as the mean number of amastigotes per cell multiplied by the number of cells counted (minimum 500 nuclei); the results were expressed as a percentage reduction in amastigote burden compared to vehicle-treated, infected control animals.

[4] = Liver microsome stability, dog; type: in vitro ADME; details: Beagle, dog liver microsomes, pH 7.4
Procedure: Tests were performed by WuXi AppTec, China. Test compounds (at 1 μM) or positive controls (testosterone, propafenone, and diclofenac) were incubated at 37 °C with liver microsomes from Balb/c mouse, golden (Syrian) hamster, Sprague-Dawley rat, Beagle dog, or human in the presence of a NADPH regenerating system and phosphate buffer (100 mM, pH 7.4) at 0.4 or 0.8 mg/mL microsomal protein. The samples were removed at time intervals from 0 to 60, 90, or 120 min and immediately mixed with cold methanol supplemented or not with acid (3% formic acid) and centrifuged prior to analysis by LC-MS/MS using tolbutamide or propranolol as internal standards.

[5] = In vivo pharmacokinetics in rat; design: species or system male Sprague-Dawley rats; details: for MRT inf: read-out: MRT0-inf; for MRT last: read-out: MRT0-last
Procedure: DNDI-6148 was formulated in 2% ethanol, 1 mol equiv NaOH, dextrose (5% solution), and administrated to male Sprague-Dawley rats, either i.v. after filtration and pH adjustment (at 2 mg/kg), or p.o. as a homogenous suspension (at 10 mg/kg). The K2-EDTA anticoagulant was added to blood samples collected at predose, 0.083 (i.v. only), 0.25, 0.5, 1, 2 (p.o. only), 4, 8, and 24 h, and were processed to plasma and stabilized with phosphoric acid (1% final) before analysis by LC-MS/MS. PK parameters were calculated using WinNonlin software (version 6.21 and 6.3).

[6] = test system: MDR1; assay: in vitro; type: in vitro ADME; details: dog
Procedure: Bidirectional permeability tests with MDCK-MDR1 cells were performed by WuXi AppTec, Co., China. The test compound, at a concentration of 2 μM in 0.4% DMSO/HBSS buffer with 10 mM HEPES pH 7.4, was applied to the apical or basolateral side of the cell monolayer. Permeation of the compound from A to B direction or B to A direction was determined in triplicate over a 150 min incubation at 37 °C and 5% CO2 (95% humidity). Test and reference compounds were quantified by LC-MS/MS analysis based on the peak area ratio of analyte/internal standard.

[7] = male, Sprague-Dawley, plasma, iv, rat, i.v. 2 mg/kg
[8] = male, Sprague-Dawley, rat, plasma, IV 2.32 mg/kg, mean of R1-R3
[9] = male, Sprague-Dawley, rat, plasma, PO 10.4 mg/kg, mean of R4-R6

Cc1c(C(=O)Nc2ccc3c(c2)B(O)OC3)nnn1-c1ccccn1 [Compound 23, N-(1-Hydroxy-1,3-dihydrobenzo[c][1,2]oxaborol-6-yl)-5-methyl-1-(pyridin-2-yl)-1H-1,2,3-triazole-4-carboxamide]
fraction unbound at 6 h, 2 µM [1]: 0.08
IC50 [2]: > 50 µM
reduction in parasite burden [3]: > 98%
microsomal CLint at 1 μM [4]: 5.8 µL/min/mg
Plasma concentration ([5]; IV 2.32 mg/kg, plasma, 5 min, mean of R1-R3): 4727
Plasma concentration ([5]; IV 2.32 mg/kg, plasma, 0.25 h, mean of R1-R3): 4093
Plasma concentration ([5]; IV 2.32 mg/kg, plasma, 0.50 h, mean of R1-R3): 3627
Plasma concentration ([5]; IV 2.32 mg/kg, plasma, 1.00 h, mean of R1-R3): 2767
Plasma concentration ([5]; IV 2.32 mg/kg, plasma, 4.00 h, mean of R1-R3): 537
Plasma concentration ([5]; IV 2.32 mg/kg, plasma, 8.00 h, mean of R1-R3): 84.9
Plasma concentration ([5]; IV 2.32 mg/kg, plasma, 24.0 h, mean of R1-R3): 5.67
AUC0-inf/AUC0-last ([5]; IV 2.32 mg/kg, mean of R1-R3): 100%
Tlast ([5]; IV 2.32 mg/kg, mean of R1-R3): 24.0 h
Plasma concentration ([5]; PO 10.4 mg/kg, plasma, 0.25 h, mean of R4-R6): 4287
Plasma concentration ([5]; PO 10.4 mg/kg, plasma, 0.50 h, mean of R4-R6): 3993
Plasma concentration ([5]; PO 10.4 mg/kg, plasma, 1.00 h, mean of R4-R6): 5153
Plasma concentration ([5]; PO 10.4 mg/kg, plasma, 2.00 h, mean of R4-R6): 6900
Plasma concentration ([5]; PO 10.4 mg/kg, plasma, 4.00 h, mean of R4-R6): 5773
Plasma concentration ([5]; PO 10.4 mg/kg, plasma, 8.00 h, mean of R4-R6): 1249
Plasma concentration ([5]; PO 10.4 mg/kg, plasma, 24.0 h, mean of R4-R6): 13.8
AUC0-inf/AUC0-last ([5]; PO 10.4 mg/kg, mean of R4-R6): 100%
Tlast ([5]; PO 10.4 mg/kg, mean of R4-R6): 24.0 h
Vd at 24 h [5, 7]: 0.6 L/kg
half-life at 24 h [5, 7]: 2.8 h
clearance ([5]; male, Sprague-Dawley, plasma, iv, rat, i.v. 2 mg/kg, read-out: clearance): 4.5 mL/min/kg
bioavailability ([5]; male, Sprague-Dawley, plasma, po, rat, p.o. 10 mg/kg, read-out: F): 94%
AUC(0-inf) [5, 8]: 9160 ng·h/mL
AUC(0-t) [5, 8]: 9140 ng·h/mL
C0 [5, 8]: 5100 ng/mL
half-life [5, 8]: 2.75 h
clearance ([5]; male, Sprague-Dawley, rat, plasma, IV 2.32 mg/kg, mean of R1-R3, read-out: Cl): 4.5 mL/min/kg
MRT inf [5, 8]: 2.29 h
MRT last [5, 8]: 2.21 h
Vd ([5]; male, Sprague-Dawley, rat, plasma, IV 2.32 mg/kg, mean of R1-R3, read-out: Vdss): 0.603 L/kg
bioavailability ([5]; male, Sprague-Dawley, rat, plasma, PO 10.4 mg/kg vs IV 2.32 mg/kg, mean, read-out: Bioavailability): 94%
AUC(0-inf) [5, 9]: 38600 ng·h/mL
AUC(0-t) [5, 9]: 38500 ng·h/mL
Cmax [5, 9]: 7330 ng/mL
Tmax [5, 9]: 2.67 h
half-life [5, 9]: 2.34 h
MRT inf [5, 9]: 4.18 h
MRT last [5, 9]: 4.15 h
Papp A→B at 150 min, 2 μM ([6]; MDCK-MDR1, pH 7.4): 17.1 ×10⁻⁶ cm/s
Papp B→A at 150 min, 2 μM ([6]; MDCK-MDR1, pH 7.4): 11.6 ×10⁻⁶ cm/s
efflux ratio at 150 min, 2 μM ([6]; MDCK-MDR1, pH 7.4): 0.68
efflux ratio at 2.5 h, 2 µM ([6]; MDCK-MDR1, pH 7.4): 0.7
recovery at 150 min, 2 μM ([6]; MDCK-MDR1, pH 7.4, Mean total recovery A to B): 71.1%
recovery at 150 min, 2 μM ([6]; MDCK-MDR1, pH 7.4, Mean total recovery B to A): 87.8%
